Test: gradient 5% acetonitrile 3 min, to 50% in 2 min, to 85% in 15 min, held 3 min, 100 µL/min
Conditions: column: Zorbax Extend-C18 2.1 x 50 mm; eluents: water / acetonitrile, 0.1% formic acid
Method in brief: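 Retention times come from adduct peaks that were picked computationally and then checked by hand. The standards, pure and pooled in mixtures of ~100 molecules, were run on a Zorbax Extend-C18 column (2.1 × 50 mm, 1.8 μm) at 100 μL/min with water and acetonitrile, each with 0.1% formic acid. Detection was by quadrupole time-of-flight mass spectrometry in positive and negative ionization mode, with a dead volume of 40 μL and a dwell volume of 900 μL.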

For `Cc1nn(-c2nc(-c3ccc(Cl)cc3)cs2)c(C)c1CC(=O)N1CCCCCC1`, the RP-LC retention time was 793 s.

With `O=C1CCN(C(=O)C2CCN(C(=O)C3CC3)CC2)CCCCCCN1` the RP-LC retention time was 598 s.

Work on `CNC(=O)c1sc(Nc2ccc(Cl)cn2)nc1C` yielded an RP-LC retention time of 687 s.

Compound `CCOc1nc2ccccc2nc1N1CCCC(C(=O)NCc2ccccc2Cl)C1` (stereo not given) has an RP-LC retention time of 1220 s.

In the case of `CCN1C(=O)c2c(C(=O)NCc3ccccc3F)ncn2CC1(C)C(=O)NC1CCCC1` (stereo not given), the RP-LC retention time is reported as 741 s.

Compound `Cc1cccc(-c2nc(Cn3nnc(C(=O)NCc4cccc(Br)c4)c3C)c(C)o2)c1` has an RP-LC retention time of 1210 s.

In the case of `Cc1ncoc1C(=O)N1CCC(F)(F)C(COCC2CC2)C1` (stereo not given), the RP-LC retention time is reported as 789 s.

For `Cc1ccccc1Nc1c(-c2ccc(N(C)C)cc2)nc2cnccn12`, the RP-LC retention time was 833 s.

Work on `Cc1ncc2c(n1)C[C@@H]1CC[C@H]2N1C(=O)Nc1ccccc1F` yielded an RP-LC retention time of 638 s.

With `CCCOc1ccccc1C(=O)Nc1nonc1-c1ccccc1` the RP-LC retention time was 991 s.

Work on `Cc1cc(C)c(C(=O)N2CCCC(C(=O)NCCC(C)C)C2)[nH]1` (stereo not given) yielded an RP-LC retention time of 788 s.

Work on `Cc1ccc(NC(=O)Cc2csc3nc(-c4ccc(C)c(C)c4)cn23)cc1C` yielded an RP-LC retention time of 850 s.

Compound `CC(C)N1C(=O)c2cccnc2Sc2cc(NC(=O)CCc3ccccc3)ccc21` has an RP-LC retention time of 922 s.

`COCCNCc1ccc(-c2ccc(Br)cc2)o1` showed an RP-LC retention time of 674 s.

Work on `CCNC(=O)c1nc(C(=O)NC2CC2)cs1` yielded an RP-LC retention time of 631 s.

For `COc1cc(Cl)c(C)cc1NC(=O)C1CCCN(c2ncnc3c2nc2n3CCCCC2)C1` (stereo not given), the RP-LC retention time was 996 s.

Compound `CC(C)NC(=O)N1CCC2(CC1)C(=O)N(C)c1ccccc12` has an RP-LC retention time of 697 s.

With `Cc1ccn(CC(=O)N2CC(n3cc(COc4ccc(F)cc4)nn3)C2)n1` the RP-LC retention time was 716 s.

In the case of `CC(C)CN(C1CCOCC1)C1CN(C(=O)c2cnccn2)C1`, the RP-LC retention time is reported as 556 s.

With `Cc1ccc(S(=O)(=O)N2CCCN(c3ccc(=O)n(-c4ccccc4)n3)CC2)cc1` the RP-LC retention time was 835 s.

For `COC(=O)c1ccc(NC(=O)c2cnc3c(c2)c(=O)n(C)c(=O)n3-c2ccccc2)cc1`, the RP-LC retention time was 879 s.

Compound `CCOCCCNC(=O)CCc1c(-c2ccc(F)cc2)nc2ccccn12` has an RP-LC retention time of 588 s.

Work on `Cc1nn2c(CNS(=O)(=O)c3ccccc3F)c(-c3ccccc3)nc2s1` yielded an RP-LC retention time of 834 s.

`O=C(NCc1ccc2c(c1)OCO2)C1CCN(c2cn[nH]c(=O)c2)C1` (stereo not given) showed an RP-LC retention time of 627 s.

With `O=C(NC1CCCCCCC1)C1CCN(C(=O)c2ncn3c2COC(c2ccccc2)C3)CC1` (stereo not given) the RP-LC retention time was 885 s.

`O=C(c1ccoc1)N1CCCCC1c1nncn1Cc1ccccc1` (stereo not given) gave an RP-LC retention time of 689 s.

`CCc1cccc(C)c1NC(=O)CSc1ccc(N2CCCC(C(=O)NC3CC3)C2)nn1` (stereo not given) showed an RP-LC retention time of 662 s.

Compound `CC(C)c1ccc(Nc2c(-c3ccc(O)cc3)nc3ncccn23)cc1` has an RP-LC retention time of 713 s.

`COc1ccc(Cl)cc1NC(=O)N1CCCC(Cn2cnc3cccnc32)C1` (stereo not given) showed an RP-LC retention time of 761 s.

With `COc1ccc(CNC(=O)CSc2nccc(N3CCN(c4cc(C)ccc4C)CC3)n2)cc1` the RP-LC retention time was 861 s.

Work on `CN(CCNC(=O)C1c2ccccc2C(=O)N(C)C1c1cccs1)C1CCCCC1` (stereo not given) yielded an RP-LC retention time of 706 s.

`COc1cccc(CNC(=O)C2(C)CCCN(C(=O)Nc3ccc(Br)cc3)C2)c1` (stereo not given) showed an RP-LC retention time of 969 s.

For `O=C(COc1ccccc1F)NC1CCCC(OC(=O)Nc2ccccc2)C1` (stereo not given), the RP-LC retention time was 872 s.

`O=C(Cc1ccc(F)cc1)Nc1ccc(-c2cn3c(C(=O)N4CCCC4)csc3n2)cc1` gave an RP-LC retention time of 783 s.

In the case of `CC(C)Cn1c(=O)c2ccccc2n(Cc2nc(-c3ccc(Br)cc3)no2)c1=O`, the RP-LC retention time is reported as 1300 s.

In the case of `O=C(NCc1cccs1)C1CCN(c2cc(-n3ccnc3)ncn2)CC1`, the RP-LC retention time is reported as 564 s.

Compound `Cc1cccc(-n2cc(C(=O)OCc3cc(=O)n4ccccc4n3)c3ccccc3c2=O)c1` has an RP-LC retention time of 906 s.

`Cc1nc(-c2cc(S(=O)(=O)Nc3ccc(Br)cc3F)c(C)s2)cs1` showed an RP-LC retention time of 1070 s.

Work on `CCOC(=O)c1noc2ncnc(N3CCCc4ccccc43)c12` yielded an RP-LC retention time of 988 s.

In the case of `Nc1nc(OCc2cc(Br)cs2)c2[nH]cnc2n1`, the RP-LC retention time is reported as 687 s.

In the case of `Oc1ccc2c3c1O[C@H]1c4[nH]c5ccccc5c4C[C@@]4(O)C(C2)N(CC2CC2)CC[C@]314`, the RP-LC retention time is reported as 717 s.

`O=C(Cc1ccsc1)NC1CCc2nnc(C3CC3)n2CC1` (stereo not given) gave an RP-LC retention time of 594 s.

`CN(C)c1ccc(N2CCC(C(=O)NCCc3c[nH]c4ccccc34)CC2)nn1` gave an RP-LC retention time of 621 s.

With `O=C(Cc1csc2nc(-c3ccccc3)cn12)NCc1cccc(Br)c1` the RP-LC retention time was 872 s.

`CN1CCN(CCNC(=O)CCc2cn(-c3ccccc3)nc2-c2ccc3c(c2)OCO3)CC1` gave an RP-LC retention time of 639 s.

`COC(=O)c1c(NC(=O)CCc2ccc(C)o2)sc(C)c1C` showed an RP-LC retention time of 1110 s.

In the case of `O=C(CCc1ccc2nc(-c3ccccc3)[nH]c2c1)NC1CCCC1`, the RP-LC retention time is reported as 618 s.

With `CCN(CC)CCCn1c(C)cc2c(c1=O)C(c1ccc(Cl)cc1)C(C#N)=C(N)O2` (stereo not given) the RP-LC retention time was 658 s.

With `CN1C(=O)c2cccnc2Sc2cc(NC(=O)c3ccc(C(F)(F)F)cc3)ccc21` the RP-LC retention time was 910 s.

With `O=C(Nc1ccc(C(F)(F)F)cc1)c1cn(CC(O)c2ccccc2)nn1` (stereo not given) the RP-LC retention time was 581 s.

In the case of `Cc1ccc(-c2noc(CCn3nc(-c4ccc5c(c4)OCO5)ccc3=O)n2)cc1`, the RP-LC retention time is reported as 968 s.

Compound `COc1ccc(NC(=O)CSc2nc3ccccc3o2)c(OC)c1` has an RP-LC retention time of 896 s.

In the case of `CCCCN1CCN(C(=O)c2cc(-c3ccncc3)cn2Cc2ccc(C)cc2)CC1`, the RP-LC retention time is reported as 582 s.

In the case of `Cc1ccc(NC(=O)c2cc(C(C)(C)C)n3nccc3n2)cc1`, the RP-LC retention time is reported as 1320 s.

Compound `CC(=O)Oc1ccc(C(=O)NCCc2c[nH]c3ccc(Cl)cc23)cc1` has an RP-LC retention time of 853 s.

`CC(C)Cn1c(=O)c(C(=O)NC2CCCCCC2)nc2cccnc21` showed an RP-LC retention time of 1090 s.

With `CC(C(=O)N1CCCCC1)n1ccc2cc(S(=O)(=O)N3CCCCCC3)ccc21` (stereo not given) the RP-LC retention time was 1010 s.

In the case of `Cc1ccc(Nc2c(-c3cc(Br)ccc3F)nc3cccc(C)n23)cc1`, the RP-LC retention time is reported as 814 s.

`CCCn1cc(C(=O)NCCCOC)c(S(=O)(=O)N2CCN(c3cccc(Cl)c3)CC2)n1` gave an RP-LC retention time of 1020 s.

For `Cc1sc(NC(=O)COc2ccc(Cl)cc2)nc1-c1ccc2c(c1)NC(=O)CO2`, the RP-LC retention time was 873 s.

With `Cc1cc2c(c(=O)n(-c3ccccc3)c(=O)n2CC(=O)Nc2ccc(Br)cc2F)n1C` the RP-LC retention time was 894 s.

With `Cc1cc(C(=O)Nc2cccc(F)c2)nc2ccnn12` the RP-LC retention time was 889 s.

`Cc1ccc(C2c3[nH]c4ccccc4c3CCN2C(=O)c2ccnn2C)cc1` (stereo not given) gave an RP-LC retention time of 673 s.

For `CC1=C(c2ccccc2)S(=O)(=O)N=C1N1CCCN(S(=O)(=O)c2cccnc2)CC1`, the RP-LC retention time was 769 s.

For `O=C1COc2cc(S(=O)(=O)N3CCCC3C(=O)Nc3ccc4c(c3)OCCO4)c(Cl)cc2N1` (stereo not given), the RP-LC retention time was 734 s.

For `COCCOCC1CCN(C(=O)CNC(=O)c2ccccc2)CC1`, the RP-LC retention time was 620 s.

`Cc1cc(C)n(-c2cc(NC(C)C)ncn2)n1` gave an RP-LC retention time of 756 s.

For `O=C(Cc1csc2ccccc12)N1CCN(C(=O)Nc2ccccc2Cl)CC1`, the RP-LC retention time was 889 s.

`CSc1cccc(NC(=O)Cn2c(=O)cc(-c3nc(C(C)C)no3)c3ccccc32)c1` showed an RP-LC retention time of 928 s.

`CCn1cnnc1CC1CCN(S(=O)(=O)Cc2ccccc2F)C1` (stereo not given) gave an RP-LC retention time of 658 s.

`CCc1nc2c(NC(=O)c3ccc(C)c(C)c3)cccn2n1` gave an RP-LC retention time of 922 s.

`Cc1ccc(S(=O)(=O)N2CC[C@H](c3n[nH]c(C)n3)[C@H](N(C)C)C2)c(C)c1` showed an RP-LC retention time of 623 s.

Work on `CC(C)c1ccc(S(=O)(=O)N2CCC(c3ccncc3)CC2)cc1` yielded an RP-LC retention time of 749 s.

For `Cc1ccc([N+](=O)[O-])cc1NC(=O)Cc1cc(-c2ccc(F)cc2)on1`, the RP-LC retention time was 896 s.

In the case of `Cc1c(F)cccc1NC(=O)N(C)CC1CCOC1` (stereo not given), the RP-LC retention time is reported as 745 s.

In the case of `Cc1cc(-c2ccc(S(=O)(=O)N3CCN(c4ccccn4)CC3)c(C)c2)on1`, the RP-LC retention time is reported as 697 s.

In the case of `Cc1nn(-c2ccc(C(=O)N3CCN(C(=O)c4ccco4)CC3)cc2)c2c1C(=O)CC(C)(C)C2`, the RP-LC retention time is reported as 712 s.

Compound `CCN1C(=O)COc2ccc(-c3csc(NC(=O)c4ccc(OC)c(OC)c4)n3)cc21` has an RP-LC retention time of 943 s.

In the case of `O=C(c1nc2ncccn2n1)N1CCCn2cc(-c3ccccc3)nc21`, the RP-LC retention time is reported as 595 s.

In the case of `CCC(C)C(NC(=O)c1ccc(OC)cc1)C(=O)Nc1nc2ccccc2[nH]1` (stereo not given), the RP-LC retention time is reported as 700 s.

With `Cc1[nH]c(=O)[nH]c(=O)c1CCC(=O)N1CCC(c2nc3ccccc3o2)CC1` the RP-LC retention time was 600 s.

`COc1ccc(Nc2nc(-c3nnn(-c4cc(Cl)c(OC)cc4OC)c3C)ns2)cc1` gave an RP-LC retention time of 1020 s.

In the case of `CN(C)C1CCc2[nH]c3c(F)cc(F)cc3c2C1` (stereo not given), the RP-LC retention time is reported as 685 s.

With `CCn1c(C(=O)N(C)C2CCCCC2)cc2c(=O)oc3ccccc3c21` the RP-LC retention time was 1010 s.

`CCCNC(=O)Nc1cccc(-c2noc(-c3ccc4c(c3)OCO4)n2)c1` gave an RP-LC retention time of 941 s.

In the case of `CCc1nc2ccc(-c3noc(-c4cccc(C#N)c4)n3)cc2n1CC`, the RP-LC retention time is reported as 710 s.

In the case of `CCCCOc1ccc(-c2nc(C3CC(=O)N(c4ccc(F)cc4)C3)no2)cc1` (stereo not given), the RP-LC retention time is reported as 1240 s.

Work on `O=C(Nc1ccc2c(c1)CN(C(=O)C1COc3ccccc3O1)CCO2)C1CC1` (stereo not given) yielded an RP-LC retention time of 823 s.

Compound `Cc1nc(N2CCN(C(=O)COc3ccc(Cl)cc3Cl)CC2)cc(-n2cccn2)n1` has an RP-LC retention time of 894 s.

With `Cc1ncsc1C1N(C2CCN(C(=O)C3CCC3)CC2)C(=O)C12CCCC2` (stereo not given) the RP-LC retention time was 661 s.

From the METLIN SMRT retention time set (Domingo-Almenara et al. 2019)
